# Laboratory results from patent US20200222474A1, “COMPOSITIONS AND METHODS FOR INCREASING PHYTOCHEMICAL BIOAVAILABLITY AND BIOACTIVITY” (North Carolina State University, priority 2017, published 2020).
# Columns and labels:
# [1] = tested on: L. crispatus ATCC 33820, DSM 20584; assay: Phenotypic growth assay (OD600); assay type: cell-based; settings: SDM + 1% (w/v) carbohydrate (0.5% esculin), 37° C., 30 hours; corrected to medium without carbohydrate
# Method: (§1) Phenotypic growth assays were performed using 1% (v/v) overnight cultures of L. acidophilus strains (Table 2) and other Lactobacillus species (Table 3) grown on SDM supplemented with 1% (w/v) glucose to inoculate 200 μL of SDM supplemented with 1% (w/v) of the examined carbohydrate (0.5% in the case of esculin) in 96-well microplate wells (Corning Costar, Corning, N.Y., USA) in duplicate or triplicate wells, respectively. The microplates were sealed with clear adhesive film, incubated at 37° C. in a Fluostar Optima microplate reader (BMG Labtech, Cary, N.C., USA), and the cell optical density (OD600) was monitored for 30 hours.
# [2] = tested on: L. rhanmosus GG (ATCC 53103); assay: Phenotypic growth assay (OD600); assay type: cell-based; settings: SDM + 1% (w/v) carbohydrate (0.5% esculin), 37° C., 30 hours; corrected to medium without carbohydrate
# Method: as §1
# [3] = tested on: L. jensenii ATCC 25258, 62G, DSM 20557; assay: Phenotypic growth assay (OD600); assay type: cell-based; settings: SDM + 1% (w/v) carbohydrate (0.5% esculin), 37° C., 30 hours; corrected to medium without carbohydrate
# Method: as §1
# [4] = tested on: L. reuteri (ATCC 23272, DSM 20016); assay: Phenotypic growth assay (OD600); assay type: cell-based; settings: SDM + 1% (w/v) carbohydrate (0.5% esculin), 37° C., 30 hours; corrected to medium without carbohydrate
# Method: as §1
# [5] = tested on: NCK2418 (ΔLBA0227); assay: Phenotypic growth analysis of deletion mutant (PTS EIIC); assay type: cell-based, Lactobacillus acidophilus; settings: compared with background Δupp strain
# Method: as §1
# (§2) Construction of gene deletion mutants. The L. acidophilus NCFM genes LBA0225 and LBA0726, both encoding P-Bgl of glycoside hydrolase family 1 (GH1) enzymes in addition to the LBA0227 and LBA0725 genes encoding an EIIC and an EIICBA components of two PTS systems, respectively, were deleted using the upp-based counterselectable gene replacement system. Briefly, in-frame deletions were constructed by amplifying 650-750 bp of the up- and downstream flanking regions of the deletion targets with two primer pairs (e.g., LBA0225A/LBA0225B and LBA0225C/LBA0225D; Table 4). The resulting purified products were joined by splicing using overlap extension PCR (SOE-PCR63) and amplified to establish the deletion alleles. The SOE-PCR products, that include flanking restriction enzyme sites, were cloned within the BamHI and SacI/EcoRI sites of the pTRK935 integration vector and transformed into E. coli EC101. The resulting recombinant plasmids (pTRK1113-6) were confirmed by DNA sequencing and electroporated into L. acidophilus NCK1910 (Table 2) that contains the pTRK669 helper plasmid, and the recovery of the single- and double-crossover recombinants was performed as previously described. Recombinants carrying the new gene deletion alleles were isolated by colony PCR using primer pairs denoted up/down (e.g., LBA0225up/LBA0225down), which anneal to the flanking regions of the amplicons. Sequence integrity and in-frame deletions were verified by DNA sequencing employing the aforementioned primer pairs and primer denoted mid (e.g., LBA0225mid). The mutations were in-frame deletions of 90-96% of the coding regions.
# To establish the functional significance of these two loci, single deletions of each PTS EII and P-Bgl gene, and a double deletion of both P-Bgl genes were constructed using the upp-based counter-selectable gene replacement system (Table 2) and the growth phenotypes of the mutant strains were analyzed (FIG. 3). […]
# [6] = tested on: NCK2422 (ΔLBA0725); assay: Phenotypic growth analysis of deletion mutant (PTS EIICBA); assay type: cell-based, Lactobacillus acidophilus; settings: for growth of the ΔLBA0725 mutant (inactive PTS EIICBA): compared with background Δupp strain
# Method: as §1, §2
# To establish the functional significance of these two loci, single deletions of each PTS EII and P-Bgl gene, and a double deletion of both P-Bgl genes were constructed using the upp-based counter-selectable gene replacement system (Table 2) and the growth phenotypes of the mutant strains were analyzed (FIG. 3). Phenotypic growth analyses of deletion mutants of EII PTS transporters (FIGS. 3A, 3C, 3E, 3G, and 3I) and phospho-β-glucosidase (FIGS. 3B, 3D, 3F, 3H, and 3J) on the β-glucosides esculin, salicin, amygdalin and the disaccharides gentiobiose and cellobiose. The background Aupp strain is shown as a grey fill graph and the growth of the mutant strains is shown as: PTS EIIC (LBA0227, pink triangle), the phospho-β-glucosidase (LBA0225, light blue triangles), the PTS EIICBA (LBA0725, yellow squares), the second phospho-β-glucosidase (LBA0726, lilac squares) and the double phospho-β-glucosidase mutant (LBA0225/LBA0726, black stars). The color scheme is consistent with that used for the gene loci in FIG. 2.
# [7] = tested on: L. acidophilus NCFM; assay: Plant glycoside uptake and metabolite analysis of L. acidophilus NCFM culture supernatants by UHPLC-DAD-Q-TOF-MS; assay type: cell-based, Lactobacillus acidophilus; settings: for aglycone / main metabolite identified in culture supernatant: L. acidophilus NCFM growing on the glycoside, up to 24 h; for order of depletion from equimolar mixture of salicin, esculin and amygdalin: culture supernatants, 24 hours growth; for Catabolism based on MS: qualitative: depletion of the plant glycoside and/or appearance of its metabolites
# Method: For initial growth and gene expression studies, L. acidophilus NCFM was propagated three times in semi-defined medium (SDM) supplemented with either 1% or 0,5% (w/v) of the plant glycoside or carbohydrate (Table 1). For the RNA-seq analysis, cells were harvested by centrifugation (3,220×10 min, 25° C.) in the mid-exponential phase (OD600=0.6-0.8) and stored at −80° C. for subsequent RNA isolation. For the mass spectrometry metabolite analyses, 200 μt samples were taken at 0, 3, 6, 9, 12, and 24 hours of growth; cells were removed by centrifugation; and supernatants were stored at −80° C. for further analysis.
# Analysis of plant glycoside uptake from L. acidophilus NCFM culture supernatants using mass spectrometry. The supernatants of L. acidophilus NCFM cultures grown on amygdalin, arbutin, esculin or salicin as carbon sources were analyzed during 24 hours by ultra-high performance liquid chromatography-diode array detection-quadruple time of flight mass spectrometry (UHPLC-DAD-Q-TOF-MS). Samples were diluted 1:20 (v/v) with methanol and an injection volume of […] was used. Separation was carried out on an Agilent Poroshell 120 phenyl-hexyl column (2.1×150 mm, 2.7 μm) using the Agilent Infinity 1290 UHPLC system (Agilent Technologies, Santa Clara, Calif., USA) equipped with a UV/vis spectrum diode array detector. Separation was performed at 0.35 mL min-1., 60° C. with a linear gradient consisting of water (A) and acetonitrile (B) both buffered with 20 mM formic acid, starting at 10% B and increased to 100% in 15 min where it was held for 2 min, returned to 10% in 0.1 min and kept for 3 min. MS detection was performed on an Agilent 6550 iFunnel QTOF MS equipped with Agilent Dual Jet Stream electrospray ion source with the drying gas temperature of 160° C. and gas flow of 13 L min^−1, whereas the sheath gas temperature was 300° C. and flow was 16 L min-1. Ionization was conducted in ESI-mode with capillary voltage set to 4000 V and nozzle voltage to 500 V. Mass spectra were recorded as centroid data for m/z 85-1700 in MS mode with an acquisition rate of 10 spectra s^−1. To avoid carry-over, the needle seat was back-flushed for 15 s at 4 mL min-1 with each of: i) isopropanol: 0.2% ammonium hydroxide (w/v) in water (1:1 v/v); ii) acetonitrile with 2% formic acid (w/v); iii) water with 2% formic acid. Data was processed with the Agilent Mass Hunter Qualitative Analysis B.07.00 software package (Agilent Technologies) and molar concentrations were obtained from standard curves of the plant glycosides and their main metabolites. Targeted compound searches were performed using lists of previously identified compounds plus standard chemical modifications.
SMILES,"Growth (OD600 max class) of L. crispatus ATCC 33820, DSM 20584 [1]",Growth (OD600 max class) of L. rhanmosus GG (ATCC 53103) [2],"Growth (OD600 max class) of L. jensenii ATCC 25258, 62G, DSM 20557 [3]","Growth (OD600 max class) of L. reuteri (ATCC 23272, DSM 20016) [4]",growth of the ΔLBA0227 mutant (inactive EIIC) [5],reduction of growth on inactivation of the EIICBA (LBA0725) [6],growth of the ΔLBA0725 mutant (inactive PTS EIICBA) [6],aglycone / main metabolite identified in culture supernatant [7],"order of depletion from equimolar mixture of salicin, esculin and amygdalin [7]","fraction of the initial glycoside utilized ([7]; during 24 hours growth, single carbon source)",Catabolism based on MS ([7]; growth concentration 1% (w/v)),Catabolism based on MS ([7]; growth concentration 0.5% (w/v))
N#C[C@H](O[C@@H]1O[C@H](CO[C@@H]2O[C@H](CO)[C@@H](O)[C@H](O)[C@H]2O)[C@@H](O)[C@H](O)[C@H]1O)c1ccccc1 [Amygdalin],− (“−” signifies OD600 max < 0.1.),+++ (“+++” signifies OD600 max > 0.6.),+ (“+” signifies 0.3 > OD600 max > 0.1.),− (“−” signifies OD600 max < 0.1.),abolished,about 50%,severely reduced,benzaldehyde,significant amounts of amygdalin persisted after 24 hours,about a third,Yes,–
O=c1ccc2cc(O[C@@H]3O[C@H](CO)[C@@H](O)[C@H](O)[C@H]3O)c(O)cc2o1 [Esculin],++ (“++” signifies 0.6 > OD600 max > 0.3.),++ (“++” signifies 0.6 > OD600 max > 0.3.),++ (“++” signifies 0.6 > OD600 max > 0.3.),− (“−” signifies OD600 max < 0.1.),invariant,–,abolished,esculetin,–,–,–,Yes
OCc1ccccc1O[C@@H]1O[C@H](CO)[C@@H](O)[C@H](O)[C@H]1O [Salicin],+++ (“+++” signifies OD600 max > 0.6.),+++ (“+++” signifies OD600 max > 0.6.),++ (“++” signifies 0.6 > OD600 max > 0.3.),− (“−” signifies OD600 max < 0.1.),invariant,–,abolished,salicyl alcohol,first compound to be fully depleted,–,Yes,–
